From paper PMC4138103 (PLoS ONE, 2014)
Values joined by “and” are separate entries in the source; they are usually repeats but may differ in a detail not shown here. Equal values may be shown once. Read-outs that look alike come from different tables or passages of the source.

How the values were obtained:
Sprague-Dawley rats = assay: Serum thyroid hormones (FT3, FT4, TSH); type: in vivo, Rattus norvegicus; details: for Emax: Rattus norvegicus; for TSH / fT3 / fT4: group mean
Description: Serum free triiodothyronine (FT3), free thyroxine (FT4) and thyroid stimulating hormone (TSH) were measured by Elecsys 2010 immunochemistry analyzer using Roche FT3, FT4 and TSH reagents (all from Roche Diagnostics GmbH, Mannheim, Germany). The test principle is electrochemiluminescence immunoassay (ECLIA).
Data were also analyzed using the BMD method, which is based on dose-response modeling of the full data set using a nested family of exponential and Hill models. The analyses were done on data of males and females combined, using sex as a covariate. […] In that case, different Critical Effect Doses (CEDs) and CEDs at the lowest bound of the confidence interval (CED-L) were generated for each sex. If no difference between sexes is detected, a CED and CED-Ls for the combined data is generated. However, this was also done if the curve fits are close, and separate analyses for males and females were then performed manually. CEDs and CED-Ls were calculated at the predefined Critical Effect Size (CES) of 5% (EFSA standard) or 10%.

Liver enzymes = system: Liver enzymes; set-up: method as in Roos et al., 2011; details: 2011, cited from earlier work; for CED, CYP3A1 mRNA / CED-L, CYP3A1 mRNA: model E4; for CED, CYP3A1 mRNA / CED-L, CYP3A1 mRNA / CED, CYP2B1 mRNA / CED-L, CYP2B1 mRNA: adipose tissue concentration based, enzyme induction data ref Roos et al.; for CED, CYP2B1 mRNA / CED-L, CYP2B1 mRNA: model E5; for CYP2B1 mRNA, CED / CYP2B1 mRNA, CED-L / CYP3A1 mRNA, CED / CYP3A1 mRNA, CED-L: total dose based, ref Roos et al.
[1] = F, CES 5%, model E2, adipose tissue concentration based
[2] = F, CES 5%, model E2, adipose tissue concentration based, half min value added to zeros
[3] = F, CES 10%, model E2, adipose tissue concentration based
[4] = F, CES 10%, model E2, adipose tissue concentration based, half min value added to zeros
[5] = M, CES 5%, model E4, adipose tissue concentration based
[6] = M, CES 5%, model E4, adipose tissue concentration based, half min value added to zeros
[7] = M, CES 10%, model E4, adipose tissue concentration based
[8] = M, CES 10%, model E4, adipose tissue concentration based, half min value added to zeros
[9] = females, CES 5%, total dose based
[10] = females, CES 5%, total dose based, half min value added to zeros
[11] = females, CES 10%, total dose based
[12] = females, CES 10%, total dose based, half min value added to zeros
[13] = females, adipose tissue concentration based
[14] = females, total dose 10 mg/kg bw
[15] = females, total dose 30 mg/kg bw
[16] = females, total dose 100 mg/kg bw
[17] = females, total dose 300 mg/kg bw
[18] = females, total dose 1000 mg/kg bw
[19] = females, total dose 1700 mg/kg bw
[20] = males, CES 5%, total dose based
[21] = males, CES 5%, total dose based, half min value added to zeros
[22] = males, CES 10%, total dose based
[23] = males, CES 10%, total dose based, half min value added to zeros
[24] = males, adipose tissue concentration based
[25] = males, total dose 1000 mg/kg bw
[26] = males, total dose 1700 mg/kg bw

## Clc1cc(Cl)c(-c2cc(Cl)c(Cl)c(Cl)c2Cl)cc1Cl [PCB 180, 2,2′,3′,4,4′,5,5′-heptachlorobiphenyl]
Sprague-Dawley rats; [1]
  CED, Serum free T3 (S-fT3): 2280 µg/g lipid
  CED, Serum free T4 (S-fT4): 821 µg/g lipid
  CED-L, Serum free T3 (S-fT3): 1496 µg/g lipid
  CED-L, Serum free T4 (S-fT4): 683 µg/g lipid
Sprague-Dawley rats; [2]
  CED, Serum TSH: 206 µg/g lipid
  CED-L, Serum TSH: 126 µg/g lipid
Sprague-Dawley rats; [3]
  CED, Serum free T3 (S-fT3): 4680 µg/g lipid
  CED, Serum free T4 (S-fT4): 1690 µg/g lipid
  CED-L, Serum free T3 (S-fT3): 3072 µg/g lipid
  CED-L, Serum free T4 (S-fT4): 1402 µg/g lipid
Sprague-Dawley rats; [4]
  CED, Serum TSH: 402 µg/g lipid
  CED-L, Serum TSH: 246 µg/g lipid
Sprague-Dawley rats; [5]
  CED, Serum free T3 (S-fT3): 428 µg/g lipid
  CED, Serum free T4 (S-fT4): 158 µg/g lipid
  CED-L, Serum free T3 (S-fT3): 196 µg/g lipid
  CED-L, Serum free T4 (S-fT4): 117 µg/g lipid
Sprague-Dawley rats; [6]
  CED, Serum TSH: 0.29 µg/g lipid
  CED-L, Serum TSH: 0.04 µg/g lipid
Sprague-Dawley rats; [7]
  CED, Serum free T3 (S-fT3): 976 µg/g lipid
  CED, Serum free T4 (S-fT4): 328 µg/g lipid
  CED-L, Serum free T3 (S-fT3): 449 µg/g lipid
  CED-L, Serum free T4 (S-fT4): 243 µg/g lipid
Sprague-Dawley rats; [8]
  CED, Serum TSH: 0.58 µg/g lipid
  CED-L, Serum TSH: 0.09 µg/g lipid
Sprague-Dawley rats; F, model E2, controls vs high dose according to the fitted model, read-out: Maximum response, Serum free T3 (S-fT3)
  Emax: -22.5%
Sprague-Dawley rats; females, controls vs high dose, fitted model, read-out: Serum free T3 (S-fT3), Maximum response
  Emax: -21.8%
Sprague-Dawley rats; males, controls vs high dose, fitted model, read-out: Serum free T3 (S-fT3), Maximum response
  Emax: -26%
Sprague-Dawley rats; read-out: Maximum response, Serum free T4 (S-fT4), F, model E2, controls vs high dose according to the fitted model
  Emax: -50.7%
Sprague-Dawley rats; read-out: Maximum response, Serum free T4 (S-fT4), M, model E4, controls vs high dose according to the fitted model
  Emax: -67.2%
Sprague-Dawley rats; read-out: Serum free T4 (S-fT4), Maximum response, females, controls vs high dose, fitted model
  Emax: -49.4%
Sprague-Dawley rats; read-out: Serum free T4 (S-fT4), Maximum response, males, controls vs high dose, fitted model
  Emax: -66.7%
Sprague-Dawley rats; model E4, controls vs high dose according to the fitted model, read-out: Maximum response, Serum free T3 (S-fT3)
  Emax: -25%
Sprague-Dawley rats; females
  fT3, Dose response: D, T
  fT4, Dose response: D, T
Sprague-Dawley rats; [9]
  Serum free T3 (S-fT3), CED: 354 mg/kg bw
  Serum free T3 (S-fT3), CED-L: 233 mg/kg bw
  Serum free T4 (S-fT4), CED: 128 mg/kg bw
  Serum free T4 (S-fT4), CED-L: 106.6 mg/kg bw
Sprague-Dawley rats; [10]
  Serum TSH, CED: 32.5 mg/kg bw
  Serum TSH, CED-L: 19.9 mg/kg bw
Sprague-Dawley rats; [11]
  Serum free T3 (S-fT3), CED: 727 mg/kg bw
  Serum free T3 (S-fT3), CED-L: 479 mg/kg bw
  Serum free T4 (S-fT4), CED: 263 mg/kg bw
  Serum free T4 (S-fT4), CED-L: 219 mg/kg bw
Sprague-Dawley rats; [12]
  Serum TSH, CED: 63.5 mg/kg bw
  Serum TSH, CED-L: 38.8 mg/kg bw
Sprague-Dawley rats; [13]
  Serum free T3, CED: 2280 µg/g lipid
  Serum free T4, CED: 821 µg/g lipid
Sprague-Dawley rats; females, total dose 3 mg/kg bw
  TSH: 0.047 µIU/ml
  fT3: 5.72 pmol/L
  fT4: 22.2 pmol/L
Sprague-Dawley rats; [14]
  TSH: 0.000136 µIU/ml
  fT3: 5.10 pmol/L
  fT4: 19.1 pmol/L
Sprague-Dawley rats; [15]
  TSH: 0.00543 µIU/ml
  fT3: 6.17 pmol/L
  fT4: 23.4 pmol/L
Sprague-Dawley rats; [16]
  TSH: 0.011 µIU/ml
  fT3: 6.20 pmol/L
  fT4: 22.4 pmol/L
Sprague-Dawley rats; [17]
  TSH: 0.021 µIU/ml
  fT3: 5.68 pmol/L
  fT4: 18.0 pmol/L
Sprague-Dawley rats; [18]
  TSH: 0.011 µIU/ml
  fT3: 5.16 pmol/L
  fT4: 15.3 pmol/L
Sprague-Dawley rats; [19]
  TSH: 0.066 µIU/ml
  fT3: 4.70 pmol/L
  fT4: 11.1 pmol/L
Sprague-Dawley rats; males
  Increased serum TSH, CED-L: 0.04 µg/g lipid
  TSH, Dose response: D, T
  fT3, Dose response: D, T
  fT4, Dose response: D, T
Sprague-Dawley rats; [20]
  Serum free T3 (S-fT3), CED: 290 mg/kg bw
  Serum free T3 (S-fT3), CED-L: 218 mg/kg bw
  Serum free T4 (S-fT4), CED: 38.1 mg/kg bw
  Serum free T4 (S-fT4), CED-L: 26.8 mg/kg bw
Sprague-Dawley rats; [21]
  Serum TSH, CED: 0.07 mg/kg bw and 0.0747 mg/kg bw
  Serum TSH, CED-L: 0.0139 mg/kg bw
Sprague-Dawley rats; [22]
  Serum free T3 (S-fT3), CED: 596 mg/kg bw
  Serum free T3 (S-fT3), CED-L: 448 mg/kg bw
  Serum free T4 (S-fT4), CED: 79.4 mg/kg bw
  Serum free T4 (S-fT4), CED-L: 56.0 mg/kg bw
Sprague-Dawley rats; [23]
  Serum TSH, CED: 0.149 mg/kg bw
  Serum TSH, CED-L: 0.0278 mg/kg bw
Sprague-Dawley rats; [24]
  Serum TSH, CED: 0.29 µg/g lipid
  Serum free T3, CED: 428 µg/g lipid
  Serum free T4, CED: 158 µg/g lipid
  Serum thyroxine, CED-L: 117000 ng/g lipid
Sprague-Dawley rats; males, total dose 3 mg/kg bw
  TSH: 0.021 µIU/ml
  fT3: 5.74 pmol/L
  fT4: 25.4 pmol/L
Sprague-Dawley rats; males, total dose 10 mg/kg bw
  TSH: 0.057 µIU/ml
  fT3: 5.58 pmol/L
  fT4: 28.4 pmol/L
Sprague-Dawley rats; males, total dose 30 mg/kg bw
  TSH: 0.059 µIU/ml
  fT3: 5.77 pmol/L
  fT4: 27.2 pmol/L
Sprague-Dawley rats; males, total dose 100 mg/kg bw
  TSH: 0.089 µIU/ml
  fT3: 5.39 pmol/L
  fT4: 21.7 pmol/L
Sprague-Dawley rats; males, total dose 300 mg/kg bw
  TSH: 0.075 µIU/ml
  fT3: 5.24 pmol/L
  fT4: 17.6 pmol/L
Sprague-Dawley rats; [25]
  TSH: 0.100 µIU/ml
  fT3: 4.21 pmol/L
  fT4: 11.7 pmol/L
Sprague-Dawley rats; [26]
  TSH: 0.137 µIU/ml
  fT3: 4.41 pmol/L
  fT4: 8.71 pmol/L
Liver enzymes; F, CES 5%
  CED, CYP3A1 mRNA: 6.75 µg/g lipid
  CED-L, CYP3A1 mRNA: 3.19 µg/g lipid
  CED, CYP2B1 mRNA: 12.4 µg/g lipid
  CED-L, CYP2B1 mRNA: 5.74 µg/g lipid
Liver enzymes; F, CES 10%
  CED, CYP3A1 mRNA: 13.5 µg/g lipid
  CED-L, CYP3A1 mRNA: 6.39 µg/g lipid
  CED, CYP2B1 mRNA: 15.5 µg/g lipid
  CED-L, CYP2B1 mRNA: 7.76 µg/g lipid
Liver enzymes; M, CES 5%
  CED, CYP3A1 mRNA: 5.88 µg/g lipid
  CED-L, CYP3A1 mRNA: 3.63 µg/g lipid
  CED, CYP2B1 mRNA: 1.52 µg/g lipid
  CED-L, CYP2B1 mRNA: 0.584 µg/g lipid
Liver enzymes; M, CES 10%
  CED, CYP3A1 mRNA: 11.8 µg/g lipid
  CED-L, CYP3A1 mRNA: 7.26 µg/g lipid
  CED, CYP2B1 mRNA: 2.15 µg/g lipid
  CED-L, CYP2B1 mRNA: 0.895 µg/g lipid
Liver enzymes; females, CES 5%
  CYP2B1 mRNA, CED: 1.70 mg/kg bw
  CYP2B1 mRNA, CED-L: 0.90 mg/kg bw
  CYP3A1 mRNA, CED: 1.50 mg/kg bw
  CYP3A1 mRNA, CED-L: 0.70 mg/kg bw
Liver enzymes; females, CES 10%
  CYP2B1 mRNA, CED: 2.20 mg/kg bw
  CYP2B1 mRNA, CED-L: 1.20 mg/kg bw
  CYP3A1 mRNA, CED: 2.90 mg/kg bw
  CYP3A1 mRNA, CED-L: 1.40 mg/kg bw
Liver enzymes; males, CES 5%
  CYP2B1 mRNA, CED: 0.70 mg/kg bw
  CYP2B1 mRNA, CED-L: 0.40 mg/kg bw
  CYP3A1 mRNA, CED: 1.40 mg/kg bw
  CYP3A1 mRNA, CED-L: 0.90 mg/kg bw
Liver enzymes; males, CES 10%
  CYP2B1 mRNA, CED: 1.00 mg/kg bw
  CYP2B1 mRNA, CED-L: 0.50 mg/kg bw
  CYP3A1 mRNA, CED: 2.90 mg/kg bw
  CYP3A1 mRNA, CED-L: 1.80 mg/kg bw
